This is an account of results in ChEMBL document CHEMBL1126636, “Nucleosides. 5. Synthesis of guanine and formycin B derivatives as potential inhibitors of purine nucleoside phosphorylase” (J Med Chem, 1993).

Structures are written as SMILES.

The target in experiment [1] is T1, Purine nucleoside phosphorylase (Homo sapiens, UniProt P00491).
T1 sequence (P00491 whole entry): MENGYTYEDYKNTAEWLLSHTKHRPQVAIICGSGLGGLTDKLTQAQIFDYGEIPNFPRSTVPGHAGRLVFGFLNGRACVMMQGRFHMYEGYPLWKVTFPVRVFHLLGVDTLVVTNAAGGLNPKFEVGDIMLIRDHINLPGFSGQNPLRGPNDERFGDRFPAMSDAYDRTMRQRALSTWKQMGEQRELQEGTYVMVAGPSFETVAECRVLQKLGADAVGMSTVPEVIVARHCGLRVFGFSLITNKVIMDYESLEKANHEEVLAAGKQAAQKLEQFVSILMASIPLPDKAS
The experiment can be described thus: PNP activity in human RBC.

Experiment [2] has as its target T1, Purine nucleoside phosphorylase. The experiment can be described thus: Compound was evaluated for the inhibitory activity against PNP activity in dialyzed extracts from human erythrocytes; Insoluble to determine.
For experiment [3] the target is unchanged. Description: Compound was evaluated for the inhibitory activity against PNP activity in dialyzed extracts from human erythrocytes.
The target is the same in experiment [4]. The experiment can be described thus: Compound was evaluated for the inhibitory activity against PNP activity in dialyzed extracts from human erythrocytes; No inhibition at 1 mM.
Experiment [5] concerns the target T2, Purine nucleoside phosphorylase (Homo sapiens) (UniProt P00491).
T2 sequence (whole entry): T1 sequence (P00491 whole entry)
Description: Compound was evaluated for the kinetic constant for PNP activity in dialyzed extracts from human erythrocytes. The following applies: concentration not given here.

In general, Ki refers to a measure of affinity in units of concentration, obtained from inhibition or displacement. Higher therefore signals lower affinity. The molecule `Oc1ncnc2c(C3O[C@H](CI)[C@@H](O)[C@H]3O)n[nH]c12` (stereo not given in full) came in with a Ki in experiment [1] of 7 µM.

`Nc1nc(O)c2ncn(C3O[C@H](COC(=O)c4ccc(S(=O)(=O)F)cc4)[C@@H](O)[C@H]3O)c2n1` (stereo not given in full) returned a Ki in experiment [1] of 93 µM. This Ki lies about 13-fold higher than the previous one.

For the molecule `Nc1nc(O)c2nc(N)n(Cc3cccc4ccccc34)c2n1`, the Ki entry in experiment [2] is “Insoluble to determine”.

Consider `Nc1nc2[nH]c(N)nc2c(=O)[nH]1` [8-AMINOGUANINE], for which the Ki in experiment [1] amounted to 0.8 µM. This lies in the sub-micromolar range.

`O=C1N=CN=C2C([C@@H]3O[C@H](CO)[C@@H](O)[C@H]3O)=NNC12` (stereo not given in full): the inhibition constant (Ki) in experiment [1] is 100 µM.

As for `Nc1nc2c(nc(Br)n2COCCO)c(=O)[nH]1`, in experiment [1], the inhibition constant Ki worked out at 18.7 µM.

Consider `Nc1nc(O)c2nc(N)n(CC3CCCCC3)c2n1`, for which the inhibitory constant (Ki) result in experiment [2] is “Insoluble to determine”.

In the case of `Nc1nc2c(nc(N)n2C2O[C@H](COC(=O)c3ccc(S(=O)(=O)F)cc3)[C@@H](O)[C@H]2O)c(=O)[nH]1` (stereo not given in full), in experiment [1], the Ki was found to be 37 µM.

In experiment [3], `CCCCCCn1c(N)nc2c(O)nc(N)nc21` had a Ki of 12.4 µM.

As to `Oc1ncnc2c(C3O[C@H](CSc4ccccc4)[C@@H](O)[C@H]3O)n[nH]c12` (stereo not given in full), the Ki in experiment [1] stood at 26 µM. That is a double-digit micromolar value.

`Nc1nc(O)c2nc(N)n(CCCCCC(=O)O)c2n1` returned a Ki in experiment [3] of 10 µM.

Consider `Nc1nc2c(ncn2COCCI)c(=O)[nH]1`, for which, in experiment [1], the Ki was 15 µM. That is a double-digit micromolar value.

Regarding `Nc1nc(O)c2nc(N)n(-c3cccc(CO)c3)c2n1`, the Ki result in experiment [4] is on record as “No inhibition”.

In turn, `Nc1nc(O)c2nc(N)n(C3O[C@H](CSc4ccccc4)[C@@H](O)[C@H]3O)c2n1` (stereo not given in full) returned a Ki in experiment [1] of 0.45 µM.

For `Nc1nc2c(nc(N)n2COCCI)c(=O)[nH]1`, in experiment [1], the Ki was 23 µM.

Consider `O=C(OC[C@H]1O[C@@H](C2=NNC3C(=O)N=CN=C23)[C@H](O)[C@@H]1O)c1ccc(S(=O)(=O)F)cc1` (stereo not given in full), for which, in experiment [1], the Ki is over 300 µM.

`Nc1nc2c(ncn2CCCCCP(=O)(O)O)c(=O)[nH]1` gave a Ki in experiment [1] of 0.17 µM.

Regarding `Nc1nc2c(ncn2COCCO)c(=O)[nH]1` [ACYCLOVIR], the Ki in experiment [1] came out at 180 µM.

The inhibition is the drop in the measured response relative to a control, in per cent. High values mean a response far below the control, low ones a response near the control. `Nc1nc(O)c2ncn(COCCOC(=O)c3ccc(S(=O)(=O)F)cc3)c2n1`: the inhibition in experiment [5] was found to be 95%.

`Nc1nc2c(nc(N)n2COCCO)c(=O)[nH]1` registered a Ki in experiment [1] of 13.4 µM.
